Assay results published in PubChem BioAssay (NCI).
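Tested at 5 concentrations; 48 h exposure; 96-well plates; endpoints linearly interpolated, else capped at highest concentration. Definition used: TGI = concentration required for complete inhibition of growth.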

Experiments:
Assay in all cases: NCI-60 cell line screen, 48 h
A498 renal = system: A498 renal
CAKI-1 renal = system: CAKI-1 renal
EKVX NSCLC = system: EKVX NSCLC
HCT-116 colon = system: HCT-116 colon
HOP-62 NSCLC = system: HOP-62 NSCLC
HOP-92 NSCLC = system: HOP-92 NSCLC
NCI-H460 lung = system: NCI-H460 lung
OVCAR-8 ovarian = system: OVCAR-8 ovarian
SK-MEL-2 melanoma = system: SK-MEL-2 melanoma
SK-MEL-28 melanoma = system: SK-MEL-28 melanoma

Row | SMILES | TGI (A498 renal) [µM] | TGI (CAKI-1 renal) [µM] | TGI (EKVX NSCLC) [µM] | TGI (HCT-116 colon) [µM] | TGI (HOP-62 NSCLC) [µM] | TGI (HOP-92 NSCLC) [µM] | TGI (NCI-H460 lung) [µM] | TGI (OVCAR-8 ovarian) [µM] | TGI (SK-MEL-2 melanoma) [µM] | TGI (SK-MEL-28 melanoma) [µM]
1 | O=C1C=C(Nc2ccccc2C(=O)CC(=O)C(=O)Nc2ccc(Cl)cc2)c2ccccc2C1=O | > 100 | > 83.4 | 99 | 28.8 | 44.5 | > 100 | 34.7 | 37.4 | 34.3 | 35
2 | Cn1c2ccc(F)cc2c2ccc3c(c21)C(=O)C=CC3=O | > 100 | 11.8 | 37.9 | 20.3 | > 100 | 15.5 | > 100 | 26.1 | > 74.2 | 28.5
3 | CC1=NN(C(=O)Cc2ccccc2)C(=O)/C1=C\c1ccc([N+](=O)[O-])cc1 | > 100 | > 100 | > 100 | > 100 | > 100 | 9.82 | > 100 | > 100 | > 100 | > 100
4 | CCn1c2nc(=O)n(CCCCCCCCSC(c3ccccc3)(c3ccccc3)c3ccccc3)c(=O)c-2nc2ccccc21 | > 100 | > 100 | > 100 | > 100 | > 100 | 53.1 | > 100 | > 100 | > 100 | > 100
5 | CC(C)=CC1C(C(=O)Oc2ccccc2C(C)C)C1(C)C (stereo not given) | 37.1 | > 100 | 36.5 | 50.9 | 85.5 | > 100 | 47 | > 100 | 33.1 | > 100
6 | c1coc(-c2nccc3c2[nH]c2ccccc23)c1 | > 100 | > 100 | > 100 | > 100 | > 100 | > 100 | > 100 | > 100 | > 100 | > 100
7 | CC(C)C(Nc1ncnc2nc[nH]c12)C(=O)O (stereo not given) | > 100 | > 100 | > 100 | > 100 | > 100 | > 100 | > 100 | > 100 | > 100 | > 100
8 | O=c1ccc2ccc(CBr)cc2o1 | 29.5 | 2.89 | 5.94 | 3.74 | 30.6 | 3.13 | 25.3 | 4.06 | 26.6 | 26.6
9 | CC(=O)c1ccccc1NC(=O)C(=O)C(C(=O)c1ccc2ccccc2c1)C1OC(=O)c2ccccc21 (stereo not given) | 43.9 | 48.1 | > 100 | 29.6 | 28.4 | 41.1 | > 100 | 94.8 | 24.9 | 32.5
